Patent US8975241B2, “Composition for treating and preventing obesity including high water-soluble 2-hydroxypropyl-betacyclodextrin as effective component” (Song Ho Biomed Co., Ltd., priority 2009, dated 2015)

Experiments:
[1] = system: mouse model with obesity caused by a high fat diet; assay: Change in body weight by autonomically drinking in mouse model with obesity caused by high fat diet; type: in vivo
[2] = system: high fat diet-mouse; assay: Change in body weight by oral administration in high fat diet-mouse; type: in vivo; details: Table 19, β-CD 15% (w/v) oral
[3] = system: mouse; details: cited from earlier work
[4] = system: high fat diet-mouse; assay: Change in body weight by oral administration in high fat diet-mouse; type: in vivo; details: for degree of body weight decrease as compared with HPBCD: method of Example 3 (oral)
Method: Male C57BL/6J mice (Five age of the week, KRIBB, Korea) were accommodated for 1 week. And then, the weights of the animals were equally divided into 5 animals as one group. While a high fat diet (60% fat kcal) was provided, sterilized distilled water and HPBCDs with 10, 20, and 40% (W/V) were orally administered at three times (Morning, Afternoon, Evening) a day for 5 days in 0.2 ml per 20 g body weight of a mouse at the same time. A change in body weight was measured to all of the animals during the test at one time per day; the fixed amount of feeds was provided at the day of measuring body weight, and then an average amount of intake per an animal (g/mouse/day) was calculated by measuring a residual amount of feeds at the next day.
A body weight was measured by using the same conditions as the above <Example 3>, except that BCDs with 10 and 20% (W/V) concentrations were used instead of HPBCDs with 10, 20, and 40% (W/V) concentrations.
A change in body weight was measured during the test using α-CD instead of HPBCD in the same method as the above <Example 3>.

[5] = system: mouse model with obesity caused by a high fat diet; assay: Change in body weight by autonomically drinking in mouse model with obesity caused by high fat diet; type: in vivo; details: for degree of body weight decrease as compared with HPBCD: autonomically drinking
Method: Male C57BL/6J mice (Five age of the week, KRIBB, Korea) were accommodated for 1 week, and then were induced with obesity by giving a high fat diet (60% fat kcal, Research Diets) for 15 days. The weights of the animals that were induced with obesity were equally divided into 3 animals as one group. And then, the solvent-control group drank sterilized distilled water, autonomically. Hydroxypropyl-β-cyclodextrin (HPBCD) was dissolved in sterilized distilled water to be 10, 15, and 20% (W/V) concentrations for drinking autonomically. A change in body weight was daily measured to all of animals during the test; the fixed amount of feeds was provided at the day of measuring body weight, and then an amount of intake per a group (g/day) was calculated by measuring a residual amount of feeds at the next day. A change in body weight was measured during the test using α-cyclodextrin (α-CD) instead of 2-hydroxypropyl-β-cyclodextrin (HPBCD) in the same method as the above <Example 1>.

[6] = system: human; details: cited from earlier work

SMILES: OC[C@H]1O[C@@H]2O[C@H]3[C@H](O)[C@@H](O)[C@@H](O[C@H]4[C@H](O)[C@@H](O)[C@@H](O[C@H]5[C@H](O)[C@@H](O)[C@@H](O[C@H]6[C@H](O)[C@@H](O)[C@@H](O[C@H]7[C@H](O)[C@@H](O)[C@@H](O[C@H]8[C@H](O)[C@@H](O)[C@@H](O[C@H]1[C@H](O)[C@H]2O)O[C@@H]8CO)O[C@@H]7CO)O[C@@H]6CO)O[C@@H]5CO)O[C@@H]4CO)O[C@@H]3CO [BCD, β-cyclodextrin]
- Change in body weight (%) ([1]; Table 18, β-CD 10% (w/v) autonomically drinking, 0 Day): 100.0 ± 0.0%
- Change in body weight (%) ([1]; Table 18, β-CD 10% (w/v) autonomically drinking, 1 Day): 99.8 ± 0.8%
- Change in body weight (%) ([1]; Table 18, β-CD 10% (w/v) autonomically drinking, 2 Day): 98.5 ± 1.3%
- Change in body weight (%) ([1]; Table 18, β-CD 10% (w/v) autonomically drinking, 3 Day): 98.2 ± 1.2%
- Change in body weight (%) ([1]; Table 18, β-CD 20% (w/v) autonomically drinking, 0 Day): 100.0 ± 0.0%
- Change in body weight (%) ([1]; Table 18, β-CD 20% (w/v) autonomically drinking, 1 Day): 99.1 ± 1.2%
- Change in body weight (%) ([1]; Table 18, β-CD 20% (w/v) autonomically drinking, 2 Day): 98.6 ± 1.2%
- Change in body weight (%) ([1]; Table 18, β-CD 20% (w/v) autonomically drinking, 3 Day): 97.5 ± 1.0%
- Change in body weight (%) ([1]; Table 18, β-CD 40% (w/v) autonomically drinking, 0 Day): 100.0 ± 0.0%
- Change in body weight (%) ([1]; Table 18, β-CD 40% (w/v) autonomically drinking, 1 Day): 98.8 ± 1.1%
- Change in body weight (%) ([1]; Table 18, β-CD 40% (w/v) autonomically drinking, 2 Day): 97.0 ± 0.8%
- Change in body weight (%) ([1]; Table 18, β-CD 40% (w/v) autonomically drinking, 3 Day): 96.4 ± 1.3%
- Body weight as percent of initial body weight ([2]; 0 Day): 100.0 ± 0.0%
- Body weight as percent of initial body weight ([2]; 1 Day): 99.6 ± 1.2%
- antiobesity effect [3]: suppress a weight increase
- increase in body weight as compared with the distilled water oral-administering group ([4]; 10 and 20% (W/V) oral): suppressed
- body weight as compared with the initial body weight ([4]; 10 and 20% (W/V) oral, Example 5): not decreased
- Body weight as percent of initial body weight ([4]; Table 15, BCD 10% (w/v) oral, 0 Day): 100.0 ± 0.0%
- Body weight as percent of initial body weight ([4]; Table 15, BCD 10% (w/v) oral, 1 Day): 101.5 ± 2.1%
- Body weight as percent of initial body weight ([4]; Table 15, BCD 10% (w/v) oral, 2 Day): 100.7 ± 1.9 %
- Body weight as percent of initial body weight ([4]; Table 15, BCD 10% (w/v) oral, 3 Day): 102.0 ± 2.5 %
- Body weight as percent of initial body weight ([4]; Table 15, BCD 10% (w/v) oral, 4 Day): 102.4 ± 4.0 %
- Body weight as percent of initial body weight ([4]; Table 15, BCD 10% (w/v) oral, 5 Day): 103.4 ± 4.1 %
- Body weight as percent of initial body weight ([4]; Table 15, BCD 20% (w/v) oral, 0 Day): 100.0 ± 0.0%
- Change in body weight (%) ([4]; Table 15, BCD 20% (w/v) oral, 1 Day): 100.3 ± 2.7 %
- Body weight as percent of initial body weight ([4]; Table 15, BCD 20% (w/v) oral, 2 Day): 102.1 ± 2.1 %
- Body weight as percent of initial body weight ([4]; Table 15, BCD 20% (w/v) oral, 3 Day): 103.1 ± 2.1 %
- Body weight as percent of initial body weight ([4]; Table 15, BCD 20% (w/v) oral, 4 Day): 103.7 ± 3.0 %
- Body weight as percent of initial body weight ([4]; Table 15, BCD 20% (w/v) oral, 5 Day): 103.2 ± 2.6 %
- Body weight as percent of initial body weight ([4]; Table 19, β-CD 10% (w/v) oral, 0 Day): 100.0 ± 0.0%
- Body weight as percent of initial body weight ([4]; Table 19, β-CD 10% (w/v) oral, 1 Day): 100.5 ± 0.8%
- Body weight as percent of initial body weight ([4]; Table 19, β-CD 10% (w/v) oral, 2 Day): 100.1 ± 1.3%
- Body weight as percent of initial body weight ([4]; Table 19, β-CD 10% (w/v) oral, 3 Day): 99.8 ± 1.2%
- Body weight as percent of initial body weight ([4]; Table 19, β-CD 15% (w/v) oral, 2 Day): 99.0 ± 1.4%
- Body weight as percent of initial body weight ([4]; Table 19, β-CD 15% (w/v) oral, 3 Day): 98.5 ± 1.0%
- Body weight as percent of initial body weight ([4]; Table 19, β-CD 20% (w/v) oral, 0 Day): 100.0 ± 0.0%
- Body weight as percent of initial body weight ([4]; Table 19, β-CD 20% (w/v) oral, 1 Day): 99.5 ± 1.1%
- Body weight as percent of initial body weight ([4]; Table 19, β-CD 20% (w/v) oral, 2 Day): 98.6 ± 0.8%
- Body weight as percent of initial body weight ([4]; Table 19, β-CD 20% (w/v) oral, 3 Day): 97.8 ± 1.3%
- degree of body weight decrease as compared with HPBCD [4]: low
- difference of effect between 10 and 20% (W/V) ([4]; oral): no significant difference
- degree of body weight decrease as compared with HPBCD [5]: low
- antiobesity effect [6]: reduce weight

SMILES: OC[C@H]1O[C@@H]2O[C@H]3[C@H](O)[C@@H](O)[C@@H](O[C@H]4[C@H](O)[C@@H](O)[C@@H](O[C@H]5[C@H](O)[C@@H](O)[C@@H](O[C@H]6[C@H](O)[C@@H](O)[C@@H](O[C@H]7[C@H](O)[C@@H](O)[C@@H](O[C@H]1[C@H](O)[C@H]2O)O[C@@H]7CO)O[C@@H]6CO)O[C@@H]5CO)O[C@@H]4CO)O[C@@H]3CO [α-CD, α-cyclodextrin]
- Change in body weight (%) ([1]; Table 16, α-CD 10% (w/v) autonomically drinking, 0 Day): 100.0 ± 0.0%
- Change in body weight (%) ([1]; Table 16, α-CD 10% (w/v) autonomically drinking, 1 Day): 100.2 ± 0.2%
- Change in body weight (%) ([1]; Table 16, α-CD 10% (w/v) autonomically drinking, 3 Day): 100.1 ± 1.4%
- Change in body weight (%) ([1]; Table 16, α-CD 15% (w/v) autonomically drinking, 0 Day): 100.0 ± 0.0%
- Change in body weight (%) ([1]; Table 16, α-CD 15% (w/v) autonomically drinking, 3 Day): 98.9 ± 1.1%
- Change in body weight (%) ([1]; Table 16, α-CD 20% (w/v) autonomically drinking, 0 Day): 100.0 ± 0.0%
- Change in body weight (%) ([1]; Table 16, α-CD 20% (w/v) autonomically drinking, 3 Day): 98.5 ± 1.3%
- Body weight as percent of initial body weight ([4]; Table 17, α-CD 10% (w/v) oral, 0 Day): 100.0 ± 0.0%
- Body weight as percent of initial body weight ([4]; Table 17, α-CD 10% (w/v) oral, 1 Day): 101.3 ± 0.4%
- Body weight as percent of initial body weight ([4]; Table 17, α-CD 10% (w/v) oral, 2 Day): 100.5 ± 1.6%
- Body weight as percent of initial body weight ([4]; Table 17, α-CD 10% (w/v) oral, 3 Day): 100.2 ± 2.7%
- Body weight as percent of initial body weight ([4]; Table 17, α-CD 20% (w/v) oral, 0 Day): 100.0 ± 0.0%
- Body weight as percent of initial body weight ([4]; Table 17, α-CD 20% (w/v) oral, 1 Day): 99.8 ± 0.8%
- Body weight as percent of initial body weight ([4]; Table 17, α-CD 20% (w/v) oral, 2 Day): 99.5 ± 1.2%
- Body weight as percent of initial body weight ([4]; Table 17, α-CD 20% (w/v) oral, 3 Day): 99.2 ± 1.0%
- Body weight as percent of initial body weight ([4]; Table 17, α-CD 40% (w/v) oral, 0 Day): 100.0 ± 0.0%
- Body weight as percent of initial body weight ([4]; Table 17, α-CD 40% (w/v) oral, 1 Day): 99.6 ± 1.0%
- Body weight as percent of initial body weight ([4]; Table 17, α-CD 40% (w/v) oral, 2 Day): 99.0 ± 1.2%
- Body weight as percent of initial body weight ([4]; Table 17, α-CD 40% (w/v) oral, 3 Day): 98.2 ± 1.3%
- degree of body weight decrease as compared with HPBCD [4]: low
- Change in body weight (%) ([5]; Table 16, α-CD 10% (w/v) autonomically drinking, 2 Day): 100.6 ± 0.4%
- Change in body weight (%) ([5]; Table 16, α-CD 15% (w/v) autonomically drinking, 1 Day): 99.8 ± 0.4%
- Change in body weight (%) ([5]; Table 16, α-CD 15% (w/v) autonomically drinking, 2 Day): 99.3 ± 0.8%
- Change in body weight (%) ([5]; Table 16, α-CD 20% (w/v) autonomically drinking, 1 Day): 99.8 ± 0.8%
- Change in body weight (%) ([5]; Table 16, α-CD 20% (w/v) autonomically drinking, 2 Day): 99.0 ± 1.4%
- degree of body weight decrease as compared with HPBCD [5]: low
